In publication PMC2912430 (Biochemistry, 2010):
Several values for one entry are separate records, joined by “and”; a condition that tells them apart may be missing. Identical values can stand only once.

Experiments:
[1] = target: T1, Thermus thermophilus IDI-2 (Thermus thermophilus, UniProt Q53W52); assay: Product studies by 1H NMR, incubation with IDI-2; type: biochemical; conditions: for Isomerization (turnover as substrate) by NMR: IDI-2, 37 °C, spectra at one-hour intervals over 12 h; for Reactivity relative to the natural substrates (times less reactive): IDI-2, estimate based on NMR studies
[2] = target: T1, Thermus thermophilus IDI-2; assay: Acid lability assay, inhibition of the isomerization of IPP to DMAPP by IDI-2; type: biochemical; conditions: for Type of inhibition: isomerization of IPP to DMAPP catalyzed by IDI-2
[3] = target: T2, Escherichia coli IDI-1 (Escherichia coli, UniProt Q46822); assay: Acid lability assay, inhibition of the isomerization of IPP to DMAPP by IDI-1; type: biochemical; conditions: for Type of inhibition: isomerization of IPP to DMAPP catalyzed by IDI-1
[4] = target: T2, Escherichia coli IDI-1; conditions: cited from earlier work
[5] = target: T1, Thermus thermophilus IDI-2; conditions: cited from earlier work
[6] = system: IDI-1; conditions: positively charged ammonium group at physiological pH; cited from earlier work

T2 sequence (Q46822 whole entry): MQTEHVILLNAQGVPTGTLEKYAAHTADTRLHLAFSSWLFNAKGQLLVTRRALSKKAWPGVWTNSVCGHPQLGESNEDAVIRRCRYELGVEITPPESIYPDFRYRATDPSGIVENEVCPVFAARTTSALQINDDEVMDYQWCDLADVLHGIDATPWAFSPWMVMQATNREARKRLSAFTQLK

Compound | Isomerization (turnover as substrate) by NMR [1] | Reactivity relative to the natural substrates (times less reactive) [1] | IC50 [2] [µM] | Type of inhibition [2] | IC50 [3] [µM] | Type of inhibition [3] | Km [4] [µM] | other results
C#CCCOP(=O)(O)OP(=O)(O)O [1-OPP, 3-Butyn-1-yl diphosphate] | no evidence was seen for isomerization | at least 1000 times | ~50 | competitive inhibitors | ~200 | competitive inhibitors | – | –
C=C=CCOP(=O)(O)OP(=O)(O)O [2-OPP, 2,3-Butadien-1-yl diphosphate] | no evidence was seen for isomerization | at least 1000 times | ~50 | competitive inhibitors | ~200 | competitive inhibitors | – | Ki ([3]; KI, IDI-1, acid lability assay, competitive inhibition): 49 µM and 31 µM
CC(C)=CCOP(=O)(O)OP(=O)(O)O [DMAPP, dimethylallyl diphosphate] | – | – | – | – | – | – | 14 | –
C=C(C)CCOP(=O)(O)OP(=O)(O)O [IPP, isopentenyl diphosphate] | – | – | – | – | – | – | 7.9 | Km [5]: 5.6 µM
CN(C)CCOP(=O)(O)OP(=O)(O)O [N,N-Dimethyl-2-amino-1-ethyl diphosphate] | – | – | – | – | – | – | – | Affinity for IDI-1 [6]: sub-nanomolar affinity
